In this test the target is MAPK14 (human) (UniProt Q16539). Kind of test: Cell-Based Assay. The conditions noted are these: for Kd / EC50 / Cp: thp1.

Several values for one entry are separate records, joined by “and”; a condition that tells them apart may be missing. Identical values can stand only once.

Chain of MAPK14 (human) (Q16539 whole entry, looked up): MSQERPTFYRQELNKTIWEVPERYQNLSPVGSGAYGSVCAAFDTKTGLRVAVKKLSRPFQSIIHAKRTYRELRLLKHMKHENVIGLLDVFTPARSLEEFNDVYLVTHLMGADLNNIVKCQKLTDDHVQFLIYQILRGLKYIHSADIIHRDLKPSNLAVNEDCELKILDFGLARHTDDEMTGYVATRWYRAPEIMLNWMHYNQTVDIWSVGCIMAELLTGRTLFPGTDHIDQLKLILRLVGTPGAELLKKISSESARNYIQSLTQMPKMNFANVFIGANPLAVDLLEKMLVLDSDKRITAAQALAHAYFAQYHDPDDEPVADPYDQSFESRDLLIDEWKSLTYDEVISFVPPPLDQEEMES

Broadly, the Kd is the concentration at which binding is half-saturated. The low end stands for higher affinity, the high end for lower affinity. Consider `CC(C)(C)c1cc(NC(=O)Nc2ccncc2)n(-c2ccccc2)n1`, for which the equilibrium dissociation constant (Kd) turned out to be 1.2 µM.
The EC50 is the concentration that produces a half-maximal response. Higher therefore signals a less potent agent. Take `CC(C)(C)c1cc(NC(=O)Nc2ccccc2)n(-c2ccncc2)n1`: the EC50 was determined as 0.82 µM and the equilibrium dissociation constant (Kd) is 0.021 µM.
For the compound `CC(C)(C)c1cc(NC(=O)NCCc2ccccc2)n(-c2ccccc2)n1`, the EC50 is 11 µM and the Kd was 0.26 µM.
`CC(C)(C)c1cc(NC(=O)Nc2ccc(Cl)cc2)n(-c2ccccc2)n1`: the EC50 was determined as 1 µM and the Kd came to 0.008 µM.
The compound `CC(C)(C)c1cc(NC(=O)NC2Cc3ccccc3C2)n(-c2ccccc2)n1` yielded an EC50 of 0.77 µM and an equilibrium dissociation constant (Kd) of 0.014 µM.
For `Cc1cccc(NC(=O)Nc2cc(C(C)(C)C)nn2-c2ccccc2)c1C`, in that order: 0.41 µM and 0.003 µM.
For `CC(C)(C)c1cc(NC(=O)NCc2ccccc2)n(-c2ccccc2)n1`, in that order: 1.2 µM and 0.047 µM.
`CC(C)(C)c1cc(NC(=O)Nc2ccc3ccccc3c2)n(-c2ccccc2)n1` came in with an EC50 of 0.7 µM.
In turn, `CC(C)(C)c1cc(NC(=O)Nc2cccnc2)n(-c2ccccc2)n1` returned a dissociation constant (Kd) of 0.42 µM.
Same read-out and setting: to `CC(C)(C)c1cc(NC(=O)Cc2ccc(Cl)cc2)n(-c2ccccc2)n1` belongs > 0.9 µM.
Turning to `CC(C)(C)c1cc(NC(=O)NC2CCCCC2)n(-c2ccccc2)n1`, the concentration for a half-maximal effect (EC50) amounted to 3.3 µM and the Kd came out at 0.13 µM.
With `COc1ccc(-n2nc(C(C)(C)C)cc2NC(=O)Nc2ccccc2)cc1`, the EC50 worked out at 1.6 µM and the Kd turned out to be 0.031 µM.
With `Cc1cc(NC(=O)Nc2ccccc2)n(-c2ccccc2)n1`, the Kd was > 7 µM.
`CC1(c2cc(NC(=O)Nc3ccccc3)n(-c3ccccc3)n2)CCOCC1` registered an equilibrium dissociation constant (Kd) of 0.28 µM.
Compound `CC(C)(C)c1cc(NC(=O)Nc2cccc3ccccc23)n(-c2ccccc2)n1` registered a concentration giving a half-maximal response (EC50) of 0.25 µM and a Kd of 0.005 µM.
In turn, `CC(C)(C)c1cc(NC(=O)Nc2ccc(N)cc2)n(-c2ccccc2)n1` registered a Kd of 0.318 µM.
In turn, `CCC(C)(C)c1cc(NC(=O)Nc2ccccc2)n(-c2ccccc2)n1` displayed an equilibrium dissociation constant (Kd) of 0.012 µM.
For the compound `Cc1ccccc1-n1nc(C(C)(C)C)cc1NC(=O)Nc1ccccc1`, the EC50 amounted to 2.3 µM and the Kd is 0.2 µM.
The like results for `Cc1cccc(-n2nc(C(C)(C)C)cc2NC(=O)Nc2ccccc2)c1` were, in that order, 0.38 µM and 0.002 µM.
Turning to `COc1cccc(-n2nc(C(C)(C)C)cc2NC(=O)Nc2ccccc2)c1`, the concentration for a half-maximal effect (EC50) was found to be 0.96 µM and the equilibrium dissociation constant (Kd) came out at 0.019 µM.
`CC(C)(C)c1cc(NC(=O)Nc2cccc(N)c2)n(-c2ccccc2)n1`: the EC50 worked out at 1 µM and the Kd came out at 0.1 µM.
`CC1(c2cc(NC(=O)Nc3ccccc3)n(-c3ccccc3)n2)CCCCC1` showed a dissociation constant (Kd) of 0.022 µM.
On to `CC(C)(C)c1cc(CC(=O)Nc2ccc(Cl)cc2)n(-c2ccccc2)n1`, for which the Kd was 1.5 µM.
On to `CN(C(=O)Nc1cc(C(C)(C)C)nn1-c1ccccc1)c1ccc(Cl)cc1`, for which the Kd was determined as 7.5 µM.
The same measure, in the same setting: to `CC(C)(C)c1cc(NC(=O)Nc2ccccn2)n(-c2ccccc2)n1` belongs 0.4 µM; to `CC(C)(C)c1cc(NC(N)=O)n(-c2ccccc2)n1`, > 7 µM.
Turning to `CC(C)(C)c1cc(NC(=O)Nc2ccccc2)n(-c2ccccc2)n1`, the Cp worked out at 0.1 µg/mL, the EC50 came out at 0.73 µM and the Kd turned out to be 0.013 µM.
Consider `CC(C)(C)c1cc(NC(=O)Nc2ccccc2)n(-c2ccc3ccccc3c2)n1`, for which the 50% effective concentration (EC50) amounted to 1.9 µM and the dissociation constant Kd was 0.008 µM.
What is called inhibition is the drop in the measured response relative to a control, in per cent. Low values mean little suppression, high ones strong suppression. In the case of `Cc1ccc(-n2nc(C(C)(C)C)cc2NC(=O)Nc2ccccc2F)cc1`, the Cp was 51 µg/mL, the EC50 worked out at 0.13 µM and the dissociation constant (Kd) came out at 0.014 µM. The compound further registered an inhibition (thp1, concentration not given here) of 53%.
With `COCC(C)(C)c1cc(NC(=O)Nc2ccccc2)n(-c2ccccc2)n1`, the equilibrium dissociation constant (Kd) was found to be 1.4 µM.
With `O=C(Nc1ccccc1)Nc1cc(C2CCCCC2)nn1-c1ccccc1`, the Kd was > 0.4 µM.
The compound `Cc1ccc(-n2nc(C(C)(C)C)cc2NC(=O)Nc2ccccc2)cc1C` registered an EC50 of 0.12 µM and a Kd of 0.004 µM.
For `CC(C)(C)c1cc(NC(=O)Nc2ccccc2)n(-c2ccc(N)cc2)n1`, in that order: 0.63 µM and 0.007 µM.
Turning to `CC(C)(C)c1cc(NC(=O)Nc2ccccc2)n(C2CCCCC2)n1`, the dissociation constant (Kd) worked out at 0.5 µM.
In turn, `CC(C)(C)c1cc(NC(=O)NC2CCc3ccccc32)n(-c2ccccc2)n1` (stereo not given) gave an EC50 of 0.33 µM and a Kd of 0.003 µM.
`CC(C)(c1ccccc1)c1cc(NC(=O)Nc2ccccc2)n(-c2ccccc2)n1` displayed a dissociation constant (Kd) of 0.76 µM.
In the case of `Cc1ccc(-n2nc(C(C)(C)C)cc2NC(=O)Nc2cccc3ccccc23)cc1`, the EC50 came out at 0.37 µM.
With `Cc1ccc(-n2nc(C(C)(C)C)cc2NC(=O)Nc2ccccc2)cc1`, the Cp is 11 µg/mL; the concentration for a half-maximal effect (EC50) amounted to 0.18 µM; the Kd is 0.003 µM and 0.021 µM.
Regarding `CN(C(=O)Nc1ccc(Cl)cc1)c1cc(C(C)(C)C)nn1-c1ccccc1`, the dissociation constant (Kd) is > 1 µM.
`CC(C)(C)c1cc(NC(=S)Nc2ccc(Cl)cc2)n(-c2ccccc2)n1` returned a Kd of 0.53 µM.
For the compound `CC(C)c1cc(NC(=O)Nc2ccccc2)n(-c2ccccc2)n1`, the Kd was 0.33 µM.

For the origin of these results see the Kinase Knowledgebase extract (Sharma et al. 2016).
